We go through four molecules from EPA's ToxRefDB 2.

Broadly, the LOAEL is the lowest tested level that showed an adverse finding. Broadly, the NOAEL is the highest dose or exposure tested at which no adverse effect was seen.

Series [1] relates to rat. Conditions: Multigenerational reproductive toxicity study, sprague dawley, Oral, Feed, dose end: 2 generation.
Series [2] has as its system rat. Conditions: Subchronic oral toxicity in rodents, wistar, Feed, dose end: 13 week, group: systemic.
The subject of series [3] is mouse. The settings on record: Carcinogenicity, cd1, Oral, Feed, dose end: 104 week, group: systemic.
The subject of series [4] is rat. The settings on record: Combined chronic toxicity/carcinogenicity, other, Oral, Feed, dose end: 104 week, group: systemic.
Series [5] deals with dog. Conditions: Sub-acute repeat dose toxicity; other; Oral; Feed; dose end: 4 week; group: systemic; systemic / in life observation / body weight / body weight gain + systemic / in life observation / food consumption / food consumption.
The subject of series [6] is dog. Conditions: Chronic toxicity; beagle; Oral; Feed; dose end: 2 year; group: systemic; systemic / in life observation / body weight / body weight gain + systemic / in life observation / food consumption / food consumption + ….
For series [7], the system named is rat. Conditions: Chronic toxicity; sprague dawley (CD); Oral; Feed; dose end: 104 week; group: systemic; systemic / in life observation / body weight / body weight + systemic / in life observation / body weight / body weight gain.
Series [8] deals with rat. Conditions: Chronic toxicity; wistar; Oral; Feed; dose end: 2 year; group: systemic; systemic / hematology / hemoglobin (hgb) / hemoglobin (hgb) + systemic / in life observation / body weight / body weight + systemic / organ ….
Series [9] concerns mouse. The settings on record: Subchronic oral toxicity in rodents, cd1, Feed, dose end: 90 day, group: systemic.
Series [10] has as its system mouse. The settings on record: Carcinogenicity, cd1, Oral, [Not Specified], dose end: 18 month, group: systemic.
The subject of series [11] is rat. Conditions: Combined chronic toxicity/carcinogenicity, sprague dawley, Oral, Feed, dose end: 105 week, group: systemic.
A further series deals with rabbit. The settings on record: Prenatal developmental toxicity study, new zealand white, Oral, Gavage/Intubation, dose end: 18 GD.
Series [12] deals with rat. The settings on record: Combined chronic toxicity/carcinogenicity, sprague dawley, Oral, Feed, dose end: 104 week, group: systemic.
Series [13] concerns rat. Conditions: Subchronic oral toxicity in rodents, sprague dawley, Gavage/Intubation, dose end: 12 week, group: systemic, systemic / clinical chemistry / albumin / albumin + systemic / clinical chemistry / alkaline phosphatase (alp/alk) / alkaline phosphatase (….
The test system of series [14] is rat. Conditions: Prenatal developmental toxicity study, sprague dawley, Oral, Gavage/Intubation, dose end: 15 GD.
The subject of series [15] is dog. The settings on record: Chronic toxicity, beagle, Oral, Capsule, dose end: 52 week.
For series [16], the system named is rat. The settings on record: Combined chronic toxicity/carcinogenicity, sprague dawley, Oral, Feed, dose end: 24 month.
Series [17] has as its system mouse. Conditions: Carcinogenicity, cd1, Oral, Feed, dose end: 18 month, group: systemic.
Setting [18] is: group: offspring, systemic / in life observation / body weight / offspring (pup) weight.
The mark [19] stands for this setting: group: parental, systemic / pathology gross / lung / foci + systemic / pathology microscopic / kidney / dilatation + systemic / pathology microscopic / ….
The mark [20] stands for this setting: systemic / hematology / anemia / anemia - hemolytic + systemic / hematology / hemoglobin (hgb) / hemoglobin (hgb) + systemic / hematology / ….
[21] abbreviates: systemic / clinical chemistry / cholesterol / cholesterol + systemic / clinical chemistry / gamma glutamyl transpeptides (gtp) / gamma ….
The mark [22] stands for this setting: systemic / clinical chemistry / thyroxine (t4) / thyroxine (t4), total + systemic / pathology microscopic / liver / cellular alteration + ….
[23] abbreviates: systemic / pathology microscopic / liver / hypertrophy.
Setting [24] is: systemic / pathology microscopic / liver / hypertrophy + systemic / organ weight / liver / absolute + systemic / organ weight / liver / ….
Setting [25] is: systemic / in life observation / body weight / body weight.
Setting [26] is: systemic / in life observation / body weight / body weight + systemic / in life observation / food consumption / food consumption.
The mark [27] stands for this setting: systemic / in life observation / food consumption / food consumption + systemic / in life observation / body weight / body weight.
The mark [28] stands for this setting: systemic / clinical chemistry / aspartate aminotransferase (ast/sgot) / aspartate aminotransferase (ast/sgot).
Setting [29] is: systemic / in life observation / mortality / mortality + systemic / pathology gross / mammary gland / cyst + systemic / pathology gross / ….
[30] abbreviates: group: developmental, developmental / developmental malformation / bone / supernumerary.
Setting [31] is: group: developmental, developmental / developmental malformation / bone / supernumerary + developmental / developmental malformation / heart / [other] + ….
Where [32] appears, read: group: maternal, systemic / in life observation / body weight / body weight gain + systemic / in life observation / food consumption / food consumption.
The mark [33] stands for this setting: systemic / in life observation / clinical signs / fur (altered appearance) + systemic / in life observation / clinical signs / urine ….
The mark [34] stands for this setting: group: developmental, developmental / developmental malformation / bone / incomplete ossification.
The mark [35] stands for this setting: group: developmental, developmental / developmental malformation / bone / incomplete ossification + developmental / developmental malformation / bone / ….
[36] abbreviates: group: maternal, systemic / in life observation / food consumption / food consumption + systemic / in life observation / body weight / body weight + systemic….
Where [37] appears, read: group: cholinesterase, cholinesterase / cholinesterase / cholinesterase / plasma cholinesterase (che).
[38] abbreviates: group: cholinesterase, cholinesterase / cholinesterase / cholinesterase / plasma cholinesterase (che) + cholinesterase / cholinesterase / cholinesterase / brain ….
Where [39] appears, read: group: systemic, systemic / in life observation / clinical signs / tremors + systemic / in life observation / clinical signs / vomitting.
The mark [40] stands for this setting: group: systemic, systemic / hematology / erythrocyte (rbc) count differential / erythrocyte (rbc) + systemic / hematology / hematocrit (hct) / hematocrit (….

Regarding `COC(=O)c1c(Cl)c(Cl)c(C(=O)OC)c(Cl)c1Cl` [Chlorthal-dimethyl], the LEL was 233 mg/kg/day in the series with rat [1] (setting [18]); 45 mg/kg/day in the series on rat [1] (group: parental, systemic / pathology microscopic / lung / infiltration cellular + systemic / pathology microscopic / thymus / involution); 17 mg/kg/day with rat [2] (systemic / hematology / polychromasia / polychromasia); 150 mg/kg/day with mouse [3] (systemic / clinical chemistry / gamma glutamyl transpeptides (gtp) / gamma glutamyl transpeptides (gtp) + systemic / clinical chemistry / …); 10 mg/kg/day in the series with rat [4] (setting [22]); 250 mg/kg/day in the series on dog [5]. For the same molecule, the LEL in the series on dog [6] came out at 100 mg/kg/day; in the series on rat [7] it was 1000 mg/kg/day; in the series with rat [8], 80 mg/kg/day; with mouse [9] (setting [23]) it was 1050 mg/kg/day. The LOAEL with rat [1] (setting [18]) was 233 mg/kg/day; with rat [1] (setting [19]), 233 mg/kg/day; in the series with rat [2] (setting [20]), over 2500 mg/kg/day; with mouse [3] (setting [21]), 1140 mg/kg/day; in the series with rat [4] (setting [22]), 10 mg/kg/day; in the series on dog [5], over 1250 mg/kg/day. Moreover, the LOAEL was over 100 mg/kg/day in the series on dog [6], 1000 mg/kg/day with rat [7], over 80 mg/kg/day with rat [8] and 1240 mg/kg/day with mouse [9] (setting [23]). In addition, the NEL with rat [1] (setting [18]) worked out at 45 mg/kg/day; in the series with rat [2] (setting [20]), 5 mg/kg/day; in the series on mouse [3] (setting [21]), 15 mg/kg/day; in the series with rat [4] (systemic / pathology microscopic / eye / atrophy + systemic / pathology microscopic / liver / cellular alteration + systemic / pathology …), 1 mg/kg/day; in the series on dog [5], 50 mg/kg/day; in the series with dog [6] it was 15 mg/kg/day. Moreover, the NEL in the series on rat [7] came out at 50 mg/kg/day; in the series with rat [8], 20 mg/kg/day; in the series with mouse [9] (setting [24]), 517 mg/kg/day. Moreover, the NOAEL in the series on rat [1] (setting [18]) is 45 mg/kg/day; in the series with rat [1] (setting [19]), 45 mg/kg/day; in the series on rat [2] (setting [20]), at least 2500 mg/kg/day; in the series with mouse [3] (setting [21]) it was 510 mg/kg/day; in the series on rat [4] (setting [22]), 1 mg/kg/day; in the series on dog [5], at least 1250 mg/kg/day. The NOAEL in the series with dog [6] was at least 100 mg/kg/day; with rat [7], 50 mg/kg/day; in the series on rat [8] it was at least 80 mg/kg/day; in the series with mouse [9] (setting [24]), 406 mg/kg/day.
On to `CC1(C)C(=O)N(Cl)C(=O)N1Cl` [1,3-Dichloro-5,5-dimethylhydantoin], for which the LEL came to 320 mg/kg/day in the series on mouse [10] (setting [25]); 100 mg/kg/day with rat [11] (setting [28]); 500 mg/kg/day in the series on rabbit (setting [30]); 1000 mg/kg/day in the series with rabbit (setting [32]); 100 mg/kg/day in the series on rat [12] (setting [33]). Further, the NEL is 100 mg/kg/day with mouse [10] (setting [26]); under 100 mg/kg/day with rat [11] (setting [28]); 100 mg/kg/day in the series with rabbit (setting [31]); 500 mg/kg/day with rabbit (setting [32]); under 100 mg/kg/day in the series on rat [12] (setting [33]). Further, the LOAEL in the series with mouse [10] (setting [27]) was over 1000 mg/kg/day; with rat [11] (setting [29]) it was 1000 mg/kg/day; in the series on rabbit (setting [30]) it was 500 mg/kg/day; with rabbit (setting [32]) it was 1000 mg/kg/day; in the series on rat [12] (systemic / in life observation / body weight / body weight + systemic / in life observation / body weight / body weight gain + systemic / …) it was 1000 mg/kg/day. For the same molecule, the NOAEL in the series with mouse [10] (setting [27]) is at least 1000 mg/kg/day; in the series with rat [11] (setting [29]), 320 mg/kg/day; in the series with rabbit (setting [31]), 100 mg/kg/day; in the series on rabbit (setting [32]), 500 mg/kg/day; in the series on rat [12] (systemic / in life observation / body weight / body weight + systemic / in life observation / body weight / body weight gain + systemic / in…), 300 mg/kg/day.
In the case of `CC1=C(/C=C/C(C)=C/C=C/C(C)=C\C(=O)O)C(C)(C)CCC1` [13-cis Retinoic acid], in the series with rat [13], the LEL stood at 4 mg/kg/day, the LOAEL is over 40 mg/kg/day, the NEL was under 4 mg/kg/day and the NOAEL was at least 40 mg/kg/day.
On to `CCOP(=S)(OCC)SCSCC` [Phorate], for which the LEL with rat [14] (setting [34]) came out at 0.1 mg/kg/day; in the series on rat [14] (setting [36]), 0.4 mg/kg/day; in the series with dog [15] (setting [37]) it was 0.05 mg/kg/day; in the series on dog [15] (group: systemic, systemic / in life observation / clinical signs / vomitting), 0.01 mg/kg/day; in the series on rat [16] (setting [37]) it was 0.05 mg/kg/day; in the series with rat [16] (setting [40]) it was 0.3 mg/kg/day. Further, in the series with mouse [17] (setting [26]), the LEL is 0.8 mg/kg/day. Besides, the NEL in the series with rat [14] (setting [34]) was under 0.1 mg/kg/day; with rat [14] (setting [36]), 0.3 mg/kg/day; with dog [15] (setting [38]) it was 0.01 mg/kg/day; in the series with dog [15] (setting [39]), 0.005 mg/kg/day; in the series on rat [16] (setting [37]) it was under 0.05 mg/kg/day; in the series with rat [16] (setting [40]) it was 0.15 mg/kg/day. For the same molecule, the NEL with mouse [17] (setting [26]) came out at 0.4 mg/kg/day. For the same molecule, the LOAEL was 0.4 mg/kg/day in the series on rat [14] (setting [35]); 0.2 mg/kg/day in the series with rat [14] (group: maternal, systemic / in life observation / food consumption / food consumption); 0.05 mg/kg/day with dog [15] (setting [37]); 0.25 mg/kg/day in the series on dog [15] (group: systemic, systemic / in life observation / clinical signs / tremors + systemic / in life observation / body weight / body weight gain); 0.05 mg/kg/day with rat [16] (setting [37]); over 0.3 mg/kg/day with rat [16] (setting [40]). Further, in the series with mouse [17] (setting [25]), the LOAEL came to 0.8 mg/kg/day. Moreover, the NOAEL with rat [14] (setting [35]) was 0.3 mg/kg/day; with rat [14] (setting [36]) it was 0.1 mg/kg/day; in the series on dog [15] (setting [38]), 0.01 mg/kg/day; in the series with dog [15] (setting [39]) it was 0.05 mg/kg/day; in the series with rat [16] (setting [37]), under 0.05 mg/kg/day; in the series on rat [16] (setting [40]), at least 0.3 mg/kg/day. Moreover, the NOAEL with mouse [17] (setting [26]) was 0.4 mg/kg/day.
